Data set [1] has as its target T1, glucagon receptor (Rattus norvegicus, UniProt P30082).
T1 construct: Liver plasma membranes for use in adenylate cyclase assays were prepared; from tissue; host or cells: rat liver plasma membranes
The data set is described as follows: Adenylate cyclase assay: glucagon-stimulated cAMP production in liver plasma membranes (Amersham Scintillation Proximity Assay kit). To be noted: for cAMP response to glucagon, serial dilutions of test substance: fixed 5 nM glucagon stock, 5 μl per well; for inhibition of cAMP activity with increasing concentration of test substance (FIG. 7): fixed concentration of glucagon. The format is biochemical. On the procedure:
Liver plasma membranes for use in adenylate cyclase assays were prepared essentially as described by Neville et al. (Biochim. Biophys. Acta 154:540-552, 1968) as modified by Pohl (Methods in Receptor Research, Blecher (ed.), New York, pp. 160-164, 1976). Twenty rats were euthanized by decapitation, and the livers were removed and cooled to 4° C. After cooling, the livers were maintained at 4° C. during the membrane preparation. The approximate volume of the livers was determined. Three volumes of medium (1 mM NaHCO3, 0.5 mM CaCl2) were added to the livers, and the liver tissue was roughly minced with scissors. The minced tissue was divided into two parts, and each part was homogenized for thirty seconds in a Waring-type blender at full speed. After homogenization, the homogenates were each transferred to a sieve with a 1.5 mm pore size, and the homogenates were strained through the sieve. The straining procedure was repeated for each homogenate through a finer screen. The strained homogenates were combined, and medium was added to a final volume of one liter. The homogenate was further homogenized with a Dounce homogenizer using eight vigorous strokes of the loose pestle. The homogenates were filtered through four layers of cheesecloth. The strained homogenates were centrifuged at approximately 150×g in a swinging bucket rotor for 20 minutes at 4° C. The supernalant was discarded, and the precipitate was resuspended in 500 ml of medium and homogenized in a Dounce homogenizer with three strokes of the loose pestle. The centrifugation was repeated, and the resulting precipitate was resuspended in 250 ml of medium. The homogenate was centrifuged as described, and the precipitate was suspended in 50 to 100 ml of medium. The suspension was homogenized in a Dounce homogenizer with three strokes of the loose pestle. Sucrose from a 69% sucrose solution was added to the suspension to a final sucrose concentration of 44.0±0.1%. The solution was centrifuged in an ultracentrifuge at approximately 100,000×g for 150 minutes. The membranes were removed from the top of the tube with a spoon. The membranes were stored at -80° C.
Adenylate cyclase assays were carried out in the presence and absence of […] diluted in DMSO. Glucagon (Mallinkrodt Inc. St. Louis, Mo.) was dissolved in 10% acetic acid and lyophilized in 25-μg portions. The lyophilized glucagon was dissolved in 100 μl of 0.05M HCl and left for three minutes, after which the glucagon was serially diluted in buffer (2.5% human serum albumin (Grade 5, Sigma Chemical Co., St. Louis, Mo.) in 0.1M HEPES, 0.15M NaCl, pH 7.4) to final concentrations of between 0 and 100 nM. Aliquots of the membrane preparations were thawed and diluted with water to a protein concentration of approximately 3-5 mg/ml.
For each 96-well assay plate, triplicate samples were assayed in the presence and absence of 20 μM skyrin. […] Five microliters of 20 μM skyrin in DMSO or 5 μl of DMSO alone was added to each well. Fifty microliters of incubation mixture (0.1% human serum albumin (Grade 5, Sigma), 15 mM MgCl2, 1 mM ATP, 0.9 mM IBMX (3-isobutyl-1-methylxanthine, Sigma), 15 mM creatine phosphate, and 5 mg/ml creatine phosphokinase in 50 mM Tris-HCl (pH 7.4) was then added to each well. […]
The cAMP produced in each reaction was determined by assaying 10 μl of each sample using an Amersham Scintillation Proximity Assay kit (Amersham, Arlington Heights, Ill.). […]
On the technique in general: Changes in cAMP serve as a functional read-out for many G protein-coupled receptors.

Data set [2] has as its system rat leukemia cell mitochondria. To be noted: cited from earlier work.
For data set [3], the target named is T2, CGRP-stimulated non-glucagon G protein-coupled receptors in liver membranes (Rattus norvegicus, UniProt Q63118).
T2 construct: Liver plasma membranes for use in adenylate cyclase assays were prepared; from tissue; host or cells: rat liver plasma membranes
The data set is described as follows: Adenylate cyclase assay with CGRP in place of glucagon. The format is biochemical. The following applies: serial dilutions of CGRP, with and without skyrin; FIG. 5. The procedure:
(§1) Liver plasma membranes for use in adenylate cyclase assays were prepared essentially as described by Neville et al. (Biochim. Biophys. Acta 154:540-552, 1968) as modified by Pohl (Methods in Receptor Research, Blecher (ed.), New York, pp. 160-164, 1976). Twenty rats were euthanized by decapitation, and the livers were removed and cooled to 4° C. After cooling, the livers were maintained at 4° C. during the membrane preparation. The approximate volume of the livers was determined. Three volumes of medium (1 mM NaHCO3, 0.5 mM CaCl2) were added to the livers, and the liver tissue was roughly minced with scissors. The minced tissue was divided into two parts, and each part was homogenized for thirty seconds in a Waring-type blender at full speed. After homogenization, the homogenates were each transferred to a sieve with a 1.5 mm pore size, and the homogenates were strained through the sieve. […]
(§2) The cAMP produced in each reaction was determined by assaying 10 μl of each sample using an Amersham Scintillation Proximity Assay kit (Amersham, Arlington Heights, Ill.).
(§3) The specificity of the skyrin antagonist activity was assessed by replacing the serial dilutions of glucagon with serial dilutions of vasoactive intestinal peptide (VIP; Sigma Chemical Co., St. Louis, Mo.), calcitonin gene-related peptide (CGRP), forskolin (Calbiochem, San Diego, Calif.) and GTP-γS. […]

Data set [4] concerns the target T3, VIP-stimulated non-glucagon G protein-coupled receptors in liver membranes (Rattus norvegicus, UniProt P30083).
T3 construct: Liver plasma membranes for use in adenylate cyclase assays were prepared; from tissue; host or cells: rat liver plasma membranes
T3 sequence (P30083 31-459): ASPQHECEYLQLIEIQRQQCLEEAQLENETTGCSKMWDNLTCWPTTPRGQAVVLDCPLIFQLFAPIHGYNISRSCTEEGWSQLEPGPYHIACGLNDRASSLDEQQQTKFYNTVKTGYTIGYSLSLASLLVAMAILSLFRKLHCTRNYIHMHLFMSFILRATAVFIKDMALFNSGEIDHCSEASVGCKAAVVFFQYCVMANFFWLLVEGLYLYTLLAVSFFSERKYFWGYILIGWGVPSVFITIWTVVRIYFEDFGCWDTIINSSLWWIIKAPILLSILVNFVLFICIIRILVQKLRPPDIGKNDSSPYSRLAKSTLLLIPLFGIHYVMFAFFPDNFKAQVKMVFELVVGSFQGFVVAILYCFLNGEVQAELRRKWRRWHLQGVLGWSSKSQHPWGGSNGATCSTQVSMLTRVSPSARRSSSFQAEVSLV
The data set is described as follows: Adenylate cyclase assay with VIP in place of glucagon. The format is biochemical. To be noted: serial dilutions of VIP, with and without skyrin; FIG. 4. On the procedure: as §1, §2, §3

Data set [5] has as its target T4, glucagon binding to rat liver membranes (Rattus norvegicus, UniProt P30082).
T4 construct: 0.2 mg of rat liver membranes in 20 μl in water; from tissue; host or cells: rat liver membranes
As to the kind of experiment: 125I-glucagon binding to rat liver membranes. The following applies: 20 μl of 56 μM skyrin vs DMSO; 30 min at 30° C.; FIG. 8. The procedure: Glucagon binding to rat liver membranes in the presence and absence of skyrin was determined in this experiment. Reactions tubes were prepared, each of which contained 20 μl of serially diluted unlabeled glucagon from 10^-5 M to 10^-10 M, 100 μl of 2× binding buffer (100 mM HEPES, pH 7.6), 200 mM NaCl, 2 mM EDTA, 2.0% bovine serum albumin (BSA), 1.0 mg/ml of bacitracin (Sigma Chem. Co.), approximately 0.1 nmoles of ^125 I-glucagon (Amersham) in 10 mM acetic acid/0.5% BSA with a specific activity of 2000 Ci/mmole, 20 μl of 56 μM skyrin (dissolved and diluted in DMSO) or DMSO, and water to achieve a final volume of 180 μl. The reaction was initiated by the addition of 0.2 mg of rat liver membranes in 20 μl in water. The reactions were incubated for 30 minutes at 30° C. After incubation the tubes were centrifuged at high speed in a microfuge for 10 minutes at 4° C. The supernatants were discarded, and the radioactivity in the pellets was quantitated with a gamma-counter (the level of radioactivity in a sample indicated the total binding of glucagon to the rat liver membranes). […] Based on this experiment, it is believed that the glucagon antagonists of this invention, including skyrin and skyrin analogs, function as glucagon antagonists by interrupting postglucagon binding events.

The conditions of data set [6]: Stark et al. 1978; cited from earlier work.
The test system of data set [7] is rat liver mitochondria. The following applies: cited from earlier work.
For data set [8], the system named is forskolin-stimulated cAMP production. The data set is described as follows: Adenylate cyclase assay with forskolin, receptor-independent stimulation of cAMP production. The format is biochemical, rat. To be noted: presence and absence of 0.02 mM skyrin. The procedure:
as §1, §2, §3

Data set [9] relates to rice dwarf virus-RNA transcriptase. The following applies: Yangai et al. 1976; cited from earlier work.
Data set [10] relates to GTPγS-stimulated cAMP production. As to the kind of experiment: Adenylate cyclase assay with GTPγS, receptor-independent stimulation of cAMP production. The format is biochemical, rat. On the procedure:
as §1, §2, §3

The structures appear in SMILES notation.

T1 sequence (P30082 27-485): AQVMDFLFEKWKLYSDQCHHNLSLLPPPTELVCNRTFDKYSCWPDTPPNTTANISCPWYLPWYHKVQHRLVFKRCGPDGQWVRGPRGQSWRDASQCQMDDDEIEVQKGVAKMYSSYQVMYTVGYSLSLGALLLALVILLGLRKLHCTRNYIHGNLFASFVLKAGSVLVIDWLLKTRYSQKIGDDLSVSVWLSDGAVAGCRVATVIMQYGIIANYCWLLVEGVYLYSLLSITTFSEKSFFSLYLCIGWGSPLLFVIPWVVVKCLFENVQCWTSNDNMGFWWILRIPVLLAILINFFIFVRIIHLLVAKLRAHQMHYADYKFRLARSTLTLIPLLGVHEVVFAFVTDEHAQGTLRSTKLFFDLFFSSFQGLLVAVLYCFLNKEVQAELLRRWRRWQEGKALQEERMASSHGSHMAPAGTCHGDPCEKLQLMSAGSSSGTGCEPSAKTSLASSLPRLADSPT
T2 sequence (Q63118 24-464): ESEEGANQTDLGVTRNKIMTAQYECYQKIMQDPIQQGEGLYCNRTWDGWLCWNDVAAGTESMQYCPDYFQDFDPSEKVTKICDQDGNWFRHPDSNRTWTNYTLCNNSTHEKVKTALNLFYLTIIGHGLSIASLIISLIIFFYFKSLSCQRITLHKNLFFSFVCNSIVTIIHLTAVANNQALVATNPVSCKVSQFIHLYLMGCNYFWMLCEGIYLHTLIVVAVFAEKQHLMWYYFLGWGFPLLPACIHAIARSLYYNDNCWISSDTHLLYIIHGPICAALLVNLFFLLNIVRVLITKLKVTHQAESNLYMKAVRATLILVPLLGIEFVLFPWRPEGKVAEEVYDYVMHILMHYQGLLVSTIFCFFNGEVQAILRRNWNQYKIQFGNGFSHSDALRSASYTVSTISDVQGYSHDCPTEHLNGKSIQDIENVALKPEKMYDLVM
T2 sequence (Q9JJ74 27-148 partner): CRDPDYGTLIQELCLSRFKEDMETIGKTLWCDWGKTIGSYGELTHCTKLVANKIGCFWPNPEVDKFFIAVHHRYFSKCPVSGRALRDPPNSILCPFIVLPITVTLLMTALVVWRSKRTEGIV
T4 sequence (P30082 27-485): as the sequence (P30082 27-485) above

For `Cc1cc(O)c2c(c1)C(=O)c1c(c(O)cc(O)c1-c1c(O)cc(O)c3c1C(=O)c1cc(CO)cc(O)c1C3=O)C2=O` [oxyskyrine], in [1], the “cAMP response to glucagon, serial dilutions of test substance” value was “inhibited cAMP response to glucagon” and the “inhibition of cAMP activity with increasing concentration of test substance (FIG. 7)” value is listed as “increase in inhibition of cAMP activity”.

Consider `Cc1cc(O)c2c(c1)C(=O)c1c(c(O)cc(O)c1-c1c(O)cc(O)c3c1C(=O)c1cc(C)cc(O)c1C3=O)C2=O` [skyrin], for which the “uncoupling of oxidative phosphorylation” value in data set [2] is recorded as “uncouple oxidative phosphorylation”. In addition, in data set [1] (20 μM skyrin in DMSO vs DMSO alone, glucagon 0-100 nM, FIG. 3), the “cAMP response to glucagon” value is given as “inhibited the cAMP response to glucagon”. Further, in data set [1], the “cAMP response to glucagon, serial dilutions of test substance” value was “inhibited cAMP response to glucagon” and the “inhibition of cAMP activity with increasing concentration of test substance (FIG. 7)” value is listed as “increase in inhibition of cAMP activity”. Besides, the “stimulation of cAMP production by CGRP” value in data set [3] is recorded as “did not affect the stimulation”. For the same compound, the “stimulation of cAMP production by VIP” value in data set [4] was “did not affect the stimulation”. Besides, in [5], the “binding of glucagon to rat liver membrane” value is listed as “increased binding of glucagon”. Further, the mutagenicity result in data set [6] was “non-mutagenic”. Further, in data set [7], the “uncoupling of oxidative phosphorylation” value is listed as “uncouple oxidative phosphorylation”. Moreover, the “cAMP levels produced by forskolin” value in data set [8] was “unaffected”. Also, the “inhibition of rice dwarf virus-RNA transcriptase” value in data set [9] is on record as “selectively inhibit”. In data set [10] (presence and absence of 0.02 mM skyrin), the “cAMP levels produced by GTPγS” value is “unaffected”. Besides, the “GTPγS-stimulated cAMP levels (FIG. 6)” value in [10] (presence of 0.2 mM skyrin as printed) is reported as “uneffected”.

Source of the values: US5508304A, “Glucagon antagonists and methods relating thereto” (ZymoGenetics, Inc., priority 1994, dated 1996).
